The text below walks through data of patent US11014911B2, “CDK2 inhibitors” (Pfizer Inc., priority 2019, dated 2021).

Where two headings read alike, the source gives them in different places.

The target of test [1] is CDK2/Cyclin E1 full length (Homo sapiens (Human), UniProt P24941). Put plainly: CDK2/Cyclin E1 full length mobility shift assay. The format is biochemical.
Test [2] addresses T1, GSK3β (H350L) (Homo sapiens (Human), UniProt P49841). Put plainly: biochemical. The settings on record: GSK3β Ki (nM).
Procedure: (§1) The assay was initiated with the addition of ATP, following 15 minutes pre-incubation of enzyme and inhibitor at room temperature in the reaction mixture. The reaction was stopped after 30 minutes at room temperature by the addition of 50 μL of 80 mM EDTA.
The target in another test is CDK9 (Homo sapiens (Human), UniProt P50750). The experiment in a line: CDK9 biochemical assay.
Test [3] has as its target T1, GSK3β (H350L). The following applies: read-out: GSK3β Ki.
Procedure: as §1
For another test, the target named is CDK6/cyclin D3 (Homo sapiens (Human), UniProt Q00534). Put plainly: CDK6/Cyclin D3 mobility shift assay. The following applies: Biochemical Assay: CDK6/cyclin D3. The source says:
CDK6/Cyclin D3 Mobility Shift Assay

Another test has as its target CDK1/cyclin A2 (Homo sapiens (Human), UniProt P06493). Put plainly: CDK1/cyclin A2 biochemical assay.

T1 sequence (P49841 whole entry, stated change not applied): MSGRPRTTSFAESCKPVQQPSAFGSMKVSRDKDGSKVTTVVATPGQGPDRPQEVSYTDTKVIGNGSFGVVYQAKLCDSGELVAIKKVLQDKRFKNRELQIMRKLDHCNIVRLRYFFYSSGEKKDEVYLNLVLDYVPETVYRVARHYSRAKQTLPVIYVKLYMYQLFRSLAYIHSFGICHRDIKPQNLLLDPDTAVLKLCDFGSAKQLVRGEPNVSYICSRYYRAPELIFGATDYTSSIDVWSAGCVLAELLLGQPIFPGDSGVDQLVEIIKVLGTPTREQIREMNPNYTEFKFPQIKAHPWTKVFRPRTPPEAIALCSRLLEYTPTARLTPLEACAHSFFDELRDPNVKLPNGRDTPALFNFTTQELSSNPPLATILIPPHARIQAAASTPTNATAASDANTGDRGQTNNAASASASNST
CDK6/cyclin D3, sequence (Q00534 whole entry, looked up): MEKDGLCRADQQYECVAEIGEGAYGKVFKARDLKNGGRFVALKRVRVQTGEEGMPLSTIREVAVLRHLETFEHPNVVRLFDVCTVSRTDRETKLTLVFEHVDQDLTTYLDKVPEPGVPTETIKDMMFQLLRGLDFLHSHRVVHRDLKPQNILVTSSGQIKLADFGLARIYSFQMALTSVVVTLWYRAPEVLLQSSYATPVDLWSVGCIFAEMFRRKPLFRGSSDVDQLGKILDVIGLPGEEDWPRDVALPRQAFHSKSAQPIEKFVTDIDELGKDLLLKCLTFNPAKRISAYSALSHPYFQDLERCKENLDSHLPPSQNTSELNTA
CDK6/cyclin D3, sequence (P30281 whole entry partner, looked up): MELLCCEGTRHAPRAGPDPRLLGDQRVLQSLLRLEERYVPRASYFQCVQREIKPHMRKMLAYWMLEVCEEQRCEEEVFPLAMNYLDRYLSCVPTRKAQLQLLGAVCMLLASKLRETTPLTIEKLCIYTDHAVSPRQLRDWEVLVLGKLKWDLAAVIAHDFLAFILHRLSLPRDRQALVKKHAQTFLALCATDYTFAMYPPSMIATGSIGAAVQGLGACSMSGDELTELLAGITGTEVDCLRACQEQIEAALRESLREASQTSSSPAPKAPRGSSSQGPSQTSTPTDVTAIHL
CDK9, sequence (P50750 whole entry, looked up): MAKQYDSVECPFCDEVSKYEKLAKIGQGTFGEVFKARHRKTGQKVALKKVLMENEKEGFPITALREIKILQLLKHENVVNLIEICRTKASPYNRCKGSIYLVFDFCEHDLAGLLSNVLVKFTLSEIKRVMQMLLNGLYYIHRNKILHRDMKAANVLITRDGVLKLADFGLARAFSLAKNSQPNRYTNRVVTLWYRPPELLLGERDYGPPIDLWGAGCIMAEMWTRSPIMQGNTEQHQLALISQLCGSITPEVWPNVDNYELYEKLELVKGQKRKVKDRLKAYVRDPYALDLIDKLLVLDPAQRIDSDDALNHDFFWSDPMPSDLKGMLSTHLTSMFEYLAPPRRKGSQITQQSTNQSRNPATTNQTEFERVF
CDK9, sequence (O60563 whole entry partner, looked up): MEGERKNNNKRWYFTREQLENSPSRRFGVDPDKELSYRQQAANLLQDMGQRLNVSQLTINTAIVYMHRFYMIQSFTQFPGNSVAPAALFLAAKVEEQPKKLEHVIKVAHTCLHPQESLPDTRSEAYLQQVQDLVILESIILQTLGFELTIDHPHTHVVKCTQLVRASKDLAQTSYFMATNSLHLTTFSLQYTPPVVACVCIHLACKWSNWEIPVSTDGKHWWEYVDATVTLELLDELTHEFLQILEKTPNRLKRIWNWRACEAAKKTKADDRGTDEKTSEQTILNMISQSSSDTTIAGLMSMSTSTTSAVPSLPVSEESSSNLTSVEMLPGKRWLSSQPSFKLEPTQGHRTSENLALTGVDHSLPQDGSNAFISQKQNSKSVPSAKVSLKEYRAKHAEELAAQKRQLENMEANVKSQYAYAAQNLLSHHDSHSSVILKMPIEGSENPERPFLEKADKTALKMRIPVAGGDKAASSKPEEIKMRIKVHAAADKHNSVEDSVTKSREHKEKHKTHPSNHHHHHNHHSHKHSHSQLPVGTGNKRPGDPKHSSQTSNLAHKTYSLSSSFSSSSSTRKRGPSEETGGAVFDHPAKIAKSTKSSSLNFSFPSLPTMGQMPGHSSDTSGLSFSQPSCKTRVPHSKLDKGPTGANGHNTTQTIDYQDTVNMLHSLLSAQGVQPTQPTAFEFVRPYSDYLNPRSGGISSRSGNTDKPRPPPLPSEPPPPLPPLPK
CDK1/cyclin A2, sequence (P06493 whole entry, looked up): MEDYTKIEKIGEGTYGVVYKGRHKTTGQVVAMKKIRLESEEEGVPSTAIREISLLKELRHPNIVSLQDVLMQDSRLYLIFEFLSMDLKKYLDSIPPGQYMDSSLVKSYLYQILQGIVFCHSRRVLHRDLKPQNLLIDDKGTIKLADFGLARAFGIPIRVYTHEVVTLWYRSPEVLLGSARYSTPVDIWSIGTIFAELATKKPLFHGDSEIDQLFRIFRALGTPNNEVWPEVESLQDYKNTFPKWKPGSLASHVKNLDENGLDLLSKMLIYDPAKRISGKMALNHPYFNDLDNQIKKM
CDK1/cyclin A2, sequence (P20248 whole entry partner, looked up): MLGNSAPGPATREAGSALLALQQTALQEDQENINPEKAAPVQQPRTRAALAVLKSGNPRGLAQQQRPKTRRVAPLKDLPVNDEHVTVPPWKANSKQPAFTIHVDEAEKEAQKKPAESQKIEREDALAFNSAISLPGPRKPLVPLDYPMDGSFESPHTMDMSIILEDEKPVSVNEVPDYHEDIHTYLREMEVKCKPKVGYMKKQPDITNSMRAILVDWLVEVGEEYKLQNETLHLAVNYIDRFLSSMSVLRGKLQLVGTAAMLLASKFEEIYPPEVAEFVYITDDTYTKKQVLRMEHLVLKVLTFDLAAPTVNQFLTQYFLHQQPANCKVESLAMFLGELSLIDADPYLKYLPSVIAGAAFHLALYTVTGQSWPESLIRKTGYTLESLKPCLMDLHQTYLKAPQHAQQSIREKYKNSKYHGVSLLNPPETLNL

For orientation: Ki means the equilibrium dissociation constant of an inhibitor or competing ligand from its target. Take `CCC(CO)CNC(=O)O[C@@H]1CC[C@H](c2cc(NC(=O)Cc3ccnc(OC)c3)n[nH]2)C1` (single isomer, unassigned) [Example 534]: the Ki turned out to be 0.85 nM in test [1] and 4.63 nM on GSK3β (H350L) [2].

On to `CCC(CO)CNC(=O)O[C@@H]1CC[C@H](c2cc(NC(=O)Cc3ccnc(OC)c3)n[nH]2)C1` (single isomer, unassigned) [Example 535], for which the values for the Ki (in test [1]; on GSK3β (H350L) [2]) were 1.21 nM and 3.8 nM, respectively.

Regarding `CCC(CO)CNC(=O)O[C@@H]1CC[C@H](c2cc(NC(=O)Cc3cc(F)cc(F)c3)n[nH]2)C1` (single isomer, unassigned) [Example 537], the Ki in test [1] stood at 1.34 nM; on GSK3β (H350L) [2], 10.7 nM.

As to `Cc1cc(CC(=O)Nc2cc([C@H]3CC[C@@H](OC(=O)N4CCC4C)C3)[nH]n2)on1` (single isomer, unassigned) [Example 589], the Ki came out at 0.59 nM in test [1] and 18.2 nM on GSK3β (H350L) [2].

For the compound `CCC1CCN1C(=O)O[C@@H]1CC[C@H](c2cc(NC(=O)Cc3cc(C)no3)n[nH]2)C1` (single isomer, unassigned) [Example 597], the values for the Ki (in test [1]; at GSK3β (H350L) [2]) were 0.54 nM and 20.9 nM, respectively.

Consider `CCC1CCN1C(=O)O[C@@H]1CC[C@H](c2cc(NC(=O)Cc3cc(C)no3)n[nH]2)C1` (single isomer, unassigned) [Example 598], for which the Ki in test [1] was 0.78 nM; on GSK3β (H350L) [2], 16.4 nM.

For the compound `CCC1(C)CCN1C(=O)O[C@@H]1CC[C@H](c2cc(NC(=O)Cc3cc(C)no3)n[nH]2)C1` (single isomer, unassigned) [Example 603], the Ki in test [1] stood at 0.07 nM; at GSK3β (H350L) [2], 13.8 nM.

On to `CCC1(C)CCN1C(=O)O[C@@H]1CC[C@H](c2cc(NC(=O)Cc3cc(C)no3)n[nH]2)C1` (single isomer, unassigned) [Example 604], for which the Ki in test [1] stood at 0.08 nM; on GSK3β (H350L) [2], 5 nM.

As for `COc1cnc(CC(=O)Nc2cc([C@H]3CC[C@@H](OC(=O)NC4(C)CC4)C3)[nH]n2)cn1` [Example 6, (1R,3S)-3-(3-{[(5-methoxypyrazin-2-yl)acetyl]amino}-1H-pyrazol-5-yl)cyclopentyl (1-methylcyclopropyl)carbamate], the Ki in test [1] worked out at 0.38 nM; on GSK3β (H350L) [2] it was 32.3 nM.

As to `COCc1cc(C(=O)Nc2cc([C@H]3CC[C@@H](OC(=O)NC4(C)CC4)C3)[nH]n2)n(C)n1` [Example 8, (1R,3S)-3-[3-({[3-(methoxymethyl)-1-methyl-1H-pyrazol-5-yl]carbonyl}amino)-1H-pyrazol-5-yl]cyclopentyl (1-methylcyclopropyl)carbamate], the results for the Ki (in test [1]; on GSK3β (H350L) [2]) were 0.5 nM and 667 nM, respectively.

Regarding `COCc1cc(C(=O)Nc2cc([C@H]3CC[C@@H](OC(=O)NC(C)C)C3)[nH]n2)n(C)n1` [Example 13, (1R,3S)-3-[3-({[3-(methoxymethyl)-1-methyl-1H-pyrazol-5-yl]carbonyl}amino)-1H-pyrazol-5-yl]cyclopentyl propan-2-ylcarbamate], the values for the Ki at CDK9, at GSK3β (H350L) [3] and on CDK6/cyclin D3 were 177 nM, 538 nM and 465 nM, respectively.

In the case of `Cc1cc(CC(=O)Nc2cc([C@H]3CC[C@@H](OC(=O)NC4(C)CC4)C3)[nH]n2)on1` [Example 15, (1R,3S)-3-(3-{[(3-methyl-1,2-oxazol-5-yl)acetyl]amino}-1H-pyrazol-5-yl)cyclopentyl (1-methylcyclopropyl)carbamate], the Ki on CDK1/cyclin A2 is 16.4 nM; at CDK9, 6.3 nM; in test [1] it was 0.17 nM; at GSK3β (H350L) [3], 29.3 nM; on CDK6/cyclin D3 it was 58.6 nM.

In the case of `CC[C@H](C)NC(=O)O[C@@H]1CC[C@H](c2cc(NC(=O)Cc3ccno3)n[nH]2)C1` [Example 16, (1R,3S)-3-{3-[(1,2-oxazol-5-ylacetyl)amino]-1H-pyrazol-5-yl}cyclopentyl (2S)-butan-2-ylcarbamate], the Ki was 0.37 nM in test [1] and 51.7 nM at GSK3β (H350L) [2].
